# Where a SMILES comes first, the peptide text is derived from it. Bridges are numbered along the chain shown (N, C = ends).
# Legend:
# [1] = test system: RAW264.7 murine macrophage-like cells; assay: In vitro gene expression of M1-like and M2-like macrophage markers (real-time PCR); format: cell-based; details: RAW264.7 in 20% CT26-CM/DMEM, 3 days
# Protocol: The detailed method and DNA primer sequences were described previously. RAW264.7 murine macrophage-like cells and CT26.WT murine colorectal cancer cells (CRL-2638) were purchased from RIKEN BRC (Tsukuba, Japan) and American Type Cell Collection (Manassas, VA, USA), respectively. CT26 cells (4 × 10^6) were grown in T75 flask with 20 mL of RPMI medium containing 10% FBS for 3 days. The culture medium (CT26-CM) was collected and centrifuged at 400 g for 5 min. RAW264.7 cells (2.4 × 10^5) were incubated in 24-well plate in the presence or absence of KS-133 (KS-133 concentration = 1, 3, or 10 μM, DMSO concentration = 0.1%) with 20% CT26-CM/DMEM for 3 days. During the incubation, medium containing KS-133 was replaced every day. mRNA extraction was performed using ISOGEN (Nippon Gene, Tokyo, Japan) on day 3 after CT26-CM incubation, and cDNA was prepared. The gene expression of M1 markers (TNF-α, iNOS, CXCL10), M2 markers (Mrc-1, IL-1rn, CCL22), and β-actin was analyzed by real-time polymerase chain reaction (PCR) using a 7300 Fast Real-Time PCR System (Applied Biosystems, Thermo Fisher Scientific, MA, USA,) and Light Cycler Fast Start DNA Master kit (Applied Biosystems). The relative mRNA expression was determined using the 2^−ΔΔCt method. ΔΔCt was calculated using control group data.
# It has been reported that when RAW264.7 cells are incubated in the presence of the culture supernatant of CT26 cells, M1-type macrophage marker mRNA expression is decreased, and that of M2-type macrophages is increased. Using this assay system, we evaluated whether KS-133 affect the mRNA expression of TNFα, iNOS, and CXCL10 as M1-type macrophage markers and Mrc-1, IL-1Rn, and CCL-22 as M2-type macrophage markers. […] Therefore, VIPR2 inhibition by KS-133 changes the macrophage polarity toward M1.
# Fig 1 Variation of marker gene expression in M1- and M2-type macrophages in the presence of KS-133. Results are presented as the mean ± SEM (n = 3 independent experiments using separately treated cultures, *p < 0.05 vs. control by two-way ANOVA).
# [2] = test system: CT26 tumors; assay: In vivo anti-tumor evaluation, CT26 subcutaneous allografts; set-up: species or system BALB/cCrSlc female mice; details: Fig 2A, KS-133 30 μg/mouse s.c. daily
# Protocol: All experimental procedures that involved animals and their care were conducted in compliance with the Guide for the Care and Use of Laboratory Animals and ARRIVE guidelines. These animal experiments were approved by the Animal Care and Use Committee of Kagawa University (approval No. 21650) and conducted at Kagawa University in accordance with the guidelines. To establish subcutaneous allograft tumors, CT26 cells (1 × 10^5) were subcutaneously injected into the left groin region of BALB/cCrSlc female mice (6 weeks old; Japan SLC, Inc., Shizuoka, Japan) under isoflurane anesthesia. […] The tumor growth rate was recorded on days 1, 7, 14, and 21 by measuring the major and minor axes with a digital caliper. […]
# Fig 2 Anti-tumor effects of KS-133 and KS-133 NPs with or without anti-PD-1 antibody in mice bearing CT26 subcutaneous allografts. […] (A) Anti-tumor efficacy of KS-133 (n = 9–10 mice per group, expressed as the mean ± SEM, *p < 0.01 and **p < 0.001 vs. vehicle control by two-way ANOVA). […] (B) Anti-tumor efficacy of KS-133 NPs (n = 11 mice per group, expressed as the mean ± SEM, *p < 0.05 and **p < 0.001 vs. vehicle control by two-way ANOVA). […] (C) Anti-tumor efficacy of KS-133 NPs and KS-133(P3S) NPs with an anti-PD-1 antibody (n = 6–8 mice per group, expressed as the mean ± SEM, *p < 0.01 and **p < 0.001 vs. Vehicle control by two-way ANOVA). […]
# [3] = KS-133 10 μM, 0.1% DMSO, 2^−ΔΔCt, n = 3, p < 0.05 vs control
smiles,measurement,setting,value
CC[C@H](C)[C@H](NC(=O)[C@H](CC(C)C)NC(=O)[C@@H]1CC(=O)NCCCC[C@@H]2NC(=O)[C@@H]3CCCN3C(=O)[C@H](CC(C)C)NC(=O)[C@H](Cc3ccc(O)cc3)NC(=O)[C@@H]3CCCN3C(=O)[C@@H]3CCCN3C(=O)[C@@H](NC(C)=O)CSSC[C@H](NC(=O)[C@H](CC(C)C)NC(=O)[C@H](Cc3ccc(O)cc3)NC2=O)C(=O)N1)C(N)=O [KS-133] (Ac-CPPYLPKYLCDLI-NH2; disulfide 1-10; lactam 7-11),mRNA expression level of CXCL10 (M1-type macrophage marker),[1]; [3],significantly enhanced
same,mRNA expression level of iNOS (M1-type macrophage marker),[1]; [3],significantly enhanced
same,CCL22 expression (M2-type macrophage marker),[1],no effect
same,IL-1Rn expression (M2-type macrophage marker),[1],no effect
same,mRNA expression of Mrc-1 (M2-type macrophage marker),"[1]; n = 3, p < 0.05 vs control",significantly decreased
same,effect on CT26 tumor growth (in words),"[2]; alone or with anti-PD-1 antibody 200 μg/mouse i.p. three times in a week, combination p < 0.001 vs vehicle",tended to suppress CT26 tumor growth
same,"tumor volume, control group set as 100%","[2]; anti-PD-1 antibody 200 μg/mouse i.p. three times in a week, 3 weeks, n = 9–10 mice per group",66%
